# Reference: patent US12319655B2, “RAF kinase inhibitors and methods of use thereof” (Deciphera Pharmaceuticals, LLC, priority 2021, dated 2025)
# pIC50: −log10 of the molar value.
# What was measured:
# [1] = target: A-Raf kinase (SEQ. ID No: 1) (Homo sapiens (Human), UniProt P10398, Y301D/Y302D); assay: Biochemical Assay for A-Raf (1); conditions: Table J, assay version (1); read-out: ARAF (1) IC50
# Description: Biochemical Assay for A-Raf (1)
# (§1) Activity of A-Raf kinase (SEQ. ID No: 1) was determined spectroscopically using a coupled pyruvate kinase/lactate dehydrogenase assay that continuously monitors the ATP hydrolysis-dependent oxidation of NADH (e.g., Schindler et al., Science, 2000, 289, 1938-1942). Assays were conducted in 384-well plates (100 μL final volume) using 5.55 nM A-Raf (Sigma), 1.5 units pyruvate kinase, 2.1 units lactate dehydrogenase, 1 mM phosphoenol pyruvate, 0.28 mM NADH, 30.1 nM MEK (SignalChem), and 1 mM ATP in assay buffer (100 mM Tris, pH 7.5, 15 mM MgCl2, 0.5 mM DTT, 0.1% octyl-glucoside, 0.002% (w/v) BSA, and 0.002% Triton X-100). Inhibition of A-Raf was measured by adding serial diluted test compound (final assay concentration of 1% DMSO). A decrease in absorption at 340 nm was monitored continuously for 6 h at 30° C. on a multi-mode microplate reader (BioTek). The reaction rate was calculated using the 4 to 5 h time frame. The reaction rate at each concentration of compound was converted to percent inhibition using controls (i.e., reaction with no test compound and reaction with a known inhibitor) and IC50 values were calculated by fitting a four-parameter sigmoidal curve to the data using Prism (GraphPad software).
# [2] = target: B-Raf kinase (SEQ. ID NO: 2) (Homo sapiens (Human), UniProt P15056); assay: Biochemical Assay for B-Raf (1); conditions: Table J, assay version (1); read-out: BRAF (1) IC50
# Description: Biochemical Assay for B-Raf (1)
# as §1, with “B-Raf” for “A-Raf”, “NO: 2)” for “No: 1)”, “0.13” for “5.55”, “Ph” for “pH”
# [3] = target: C-Raf kinase (SEQ. ID NO: 3) (Homo sapiens (Human), UniProt P04049, Y340D/Y341D); assay: Biochemical Assay for C-Raf (1); conditions: Table J, assay version (1); read-out: CRAF (1) IC50
# Description: Biochemical Assay for C-Raf (1)
# as §1, with “C-Raf” for “A-Raf”, “NO: 3)” for “No: 1)”, “0.43” for “5.55”, “Ph” for “pH”
# [4] = target: B-Raf (V600E) (SEQ. ID NO: 4) kinase (Homo sapiens (Human), UniProt P15056, V600E); assay: Biochemical Assay for B-Raf (V600E) (1); conditions: Table J, BRAF V600E, assay version (1); read-out: BRAF VE (1) IC50
# Description: Biochemical Assay for B-Raf (V600E) (1)
# Activity of B-Raf (V600E) (SEQ. ID NO: 4) kinase was determined spectroscopically using a coupled pyruvate kinase/lactate dehydrogenase assay that continuously monitors the ATP hydrolysis-dependent oxidation of NADH (e.g., Schindler et al., Science, 2000, 289, 1938-1942). Assays were conducted in 384-well plates (100 μL final volume) using 0.03 nM B-Raf (SignalChem), 1.5 units pyruvate kinase, 2.1 units lactate dehydrogenase, 1 mM phosphoenol pyruvate, 0.28 mM NADH, 30.1 nM MEK (SignalChem), and 1 mM ATP in assay buffer (100 mM Tris, Ph 7.5, 15 mM MgCl2, 0.5 mM DTT, 0.1% octyl-glucoside, 0.002% (w/v) BSA, and 0.002% Triton X-100). Inhibition of B-Raf (V600E) was measured by adding serial diluted test compound (final assay concentration of 1% DMSO). A decrease in absorption at 340 nm was monitored continuously for 6 h at 30° C. on a multi-mode microplate reader (BioTek). The reaction rate was calculated using the 3 to 4 h time frame. The reaction rate at each concentration of compound was converted to percent inhibition using controls (i.e., reaction with no test compound and reaction with a known inhibitor) and IC50 values were calculated by fitting a four-parameter sigmoidal curve to the data using Prism (GraphPad software).
# Chain of C-Raf kinase (SEQ. ID NO: 3) (P04049 307-648 Y340D/Y341D): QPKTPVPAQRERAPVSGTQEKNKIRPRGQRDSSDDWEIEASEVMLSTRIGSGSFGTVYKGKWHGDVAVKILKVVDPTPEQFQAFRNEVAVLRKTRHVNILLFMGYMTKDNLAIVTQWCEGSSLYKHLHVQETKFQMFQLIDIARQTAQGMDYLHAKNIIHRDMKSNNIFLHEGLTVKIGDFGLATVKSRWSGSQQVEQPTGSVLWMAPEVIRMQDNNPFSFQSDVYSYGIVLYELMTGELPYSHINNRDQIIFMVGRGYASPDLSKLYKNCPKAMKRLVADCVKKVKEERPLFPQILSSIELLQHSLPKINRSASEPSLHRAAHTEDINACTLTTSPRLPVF
# Chain of A-Raf kinase (SEQ. ID No: 1) (P10398 other isoform, or with tags, fused parts or gaps Y301D (already in the parent)/Y302D (already in the parent)): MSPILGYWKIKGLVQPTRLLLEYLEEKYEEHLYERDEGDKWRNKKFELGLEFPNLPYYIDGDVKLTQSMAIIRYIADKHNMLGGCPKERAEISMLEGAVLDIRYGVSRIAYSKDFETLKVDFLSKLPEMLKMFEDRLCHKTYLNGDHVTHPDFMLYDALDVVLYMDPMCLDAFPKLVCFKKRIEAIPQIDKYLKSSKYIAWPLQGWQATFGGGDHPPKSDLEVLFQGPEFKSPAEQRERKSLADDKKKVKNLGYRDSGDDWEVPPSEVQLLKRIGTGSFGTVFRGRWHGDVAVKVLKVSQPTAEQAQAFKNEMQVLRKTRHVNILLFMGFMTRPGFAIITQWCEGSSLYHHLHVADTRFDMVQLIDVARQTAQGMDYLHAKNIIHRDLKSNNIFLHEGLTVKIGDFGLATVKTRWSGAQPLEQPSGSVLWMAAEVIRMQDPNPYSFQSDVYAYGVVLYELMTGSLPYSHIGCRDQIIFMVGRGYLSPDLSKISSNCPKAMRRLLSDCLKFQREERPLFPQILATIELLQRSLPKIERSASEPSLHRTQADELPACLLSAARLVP
# Chain of B-Raf kinase (SEQ. ID NO: 2) (P15056 416-766): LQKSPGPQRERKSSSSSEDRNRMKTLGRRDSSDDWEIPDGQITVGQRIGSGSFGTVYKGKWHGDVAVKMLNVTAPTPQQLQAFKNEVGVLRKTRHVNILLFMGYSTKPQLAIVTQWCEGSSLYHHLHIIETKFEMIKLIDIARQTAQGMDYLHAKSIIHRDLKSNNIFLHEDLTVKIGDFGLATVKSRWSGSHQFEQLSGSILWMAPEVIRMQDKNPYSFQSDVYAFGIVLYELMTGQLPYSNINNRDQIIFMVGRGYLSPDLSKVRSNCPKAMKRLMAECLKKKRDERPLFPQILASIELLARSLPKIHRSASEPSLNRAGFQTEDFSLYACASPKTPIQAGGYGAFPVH
# Chain of B-Raf (V600E) (SEQ. ID NO: 4) kinase (P15056 416-766 V600E): as the sequence (P15056 416-766) above, with V185E counted along it
pIC50 [1],pIC50 [2],pIC50 [3],pIC50 [4],SMILES
5.00 to 6.00,5.00 to 6.00,6.30 to 7.00,≥ 7.00,CC(=O)Nc1cc(-c2cc(-c3cc(NC(=O)c4ccnc(C(F)(F)F)c4)ccc3C)cc(C(C)(C)O)n2)ccn1 [Example 33]
5.00 to 6.00,5.00 to 6.00,5.00 to 6.00,5.00 to 6.00,CC(=O)Nc1cc(-c2cc(-c3cc(NC(=O)c4ccnc(C(F)(F)F)c4)ccc3C)nn(C)c2=O)ccn1 [Example 34]
5.00 to 6.00,5.00 to 6.00,5.00 to 6.00,5.00 to 6.00,CNC(=O)c1cc(-c2cc(-c3cc(NC(=O)c4ccnc(C(F)(F)F)c4)ccc3C)nn(C)c2=O)ccn1 [Example 51]
5.00 to 6.00,5.00 to 6.00,6.00 to 6.30,≥ 7.00,CNC(=O)c1cc(-c2cc(-c3cc(NC(=O)c4ccnc(C(F)(F)F)c4)ccc3C)cc(=O)n2C)ccn1 [Example 67]
5.00 to 6.00,5.00 to 6.00,6.00 to 6.30,6.30 to 7.00,Cc1ncc(NC(=O)c2ccnc(C(C)(C)C#N)c2)cc1-c1nccc(-c2ccnc3c2CC(=O)N3)n1 [Example 93]
5.00 to 6.00,5.00 to 6.00,5.00 to 6.00,6.30 to 7.00,CNC(=O)c1cc(-c2cc(-c3cc(NC(=O)c4ccnc(C(F)F)c4)c(F)cc3C)cc(=O)n2C)ccn1 [Example 115]
5.00 to 6.00,6.30 to 7.00,6.30 to 7.00,≥ 7.00,COCCNc1cc(-c2cncc(-c3cc(NC(=O)c4ccnc(C(F)(F)F)c4)ccc3C)n2)ccn1 [Example 119]
5.00 to 6.00,6.30 to 7.00,≥ 7.00,≥ 7.00,CNC(=O)c1cc(-c2cc(-c3cc(NC(=O)c4cc(C(F)(F)F)ccn4)ccc3C)ccn2)ccn1 [Example 126]
5.00 to 6.00,≥ 7.00,≥ 7.00,≥ 7.00,COCC(=O)Nc1cc(-c2nccc(-c3cc(NC(=O)c4ccnc(C(F)(F)F)c4)ccc3C)n2)ccn1 [Example 137]
5.00 to 6.00,6.00 to 6.30,6.30 to 7.00,≥ 7.00,CNC(=O)c1cc(-c2cncc(-c3cc(NC(=O)c4cc(C(F)(F)F)cc(CN(C)C)n4)ccc3C)n2)ccn1 [Example 147]
5.00 to 6.00,≥ 7.00,≥ 7.00,≥ 7.00,Cc1ccc(NC(=O)c2cc(C(F)(F)F)ccn2)cc1-c1cncc(-c2ccnc(NC(=O)C3CC3)c2)n1 [Example 167]
5.00 to 6.00,6.30 to 7.00,6.30 to 7.00,≥ 7.00,CNC(=O)c1cc(-c2cncc(-c3cc(NC(=O)c4ccnc(C(C)(C)C#N)c4)c(F)cc3C)n2)ccn1 [Example 170]
6.30 to 7.00,≥ 7.00,≥ 7.00,≥ 7.00,Cc1ccc(NC(=O)c2ccnc(C3(C#N)CC3)c2)cc1-c1cncc(-c2ccnc(NC(=O)C3CC3)c2)n1 [Example 183]
5.00 to 6.00,≥ 7.00,≥ 7.00,≥ 7.00,Cc1ccc(NC(=O)c2cc(C(F)(F)F)ccn2)cc1-c1ccnc(-c2ccnc(NC(=O)C3CC3)c2)n1 [Example 188]
5.00 to 6.00,6.30 to 7.00,6.30 to 7.00,≥ 7.00,Cc1ccc(NC(=O)c2ccnc(C(C)(C)C#N)c2)cc1-c1ccnc(-c2ccnc(NC(=O)C(C)(C)C)c2)c1 [Example 206]
5.00 to 6.00,5.00 to 6.00,6.00 to 6.30,6.30 to 7.00,COC(C)(C)C(=O)Nc1cc(-c2cccc(-c3cc(NC(=O)c4ccnc(C(C)(C)C#N)c4)cnc3C)c2)ncn1 [Example 208]
5.00 to 6.00,5.00 to 6.00,6.00 to 6.30,6.30 to 7.00,COC(C)(C)C(=O)Nc1cc(-c2cc(-c3cc(NC(=O)c4ccnc(C(C)(C)C#N)c4)cnc3C)ccn2)ccn1 [Example 209]
5.00 to 6.00,6.00 to 6.30,6.00 to 6.30,≥ 7.00,COC(C)(C)C(=O)Nc1cc(-c2cccc(-c3cc(NC(=O)c4ccnc(C(C)(C)C#N)c4)ccc3C)c2)ncn1 [Example 211]
5.00 to 6.00,6.30 to 7.00,6.30 to 7.00,≥ 7.00,Cc1ncc(NC(=O)c2ccnc(C(C)(C)C#N)c2)cc1-c1ccnc(-c2ccnc(NC(=O)C(C)(C)C)c2)c1 [Example 228]
6.30 to 7.00,≥ 7.00,≥ 7.00,≥ 7.00,Cc1ccc(NC(=O)c2ccnc(C(C)(C)F)c2)cc1-c1nccc(-c2ccnc(NC(=O)C3CC3)c2)n1 [Example 232]
5.00 to 6.00,≥ 7.00,≥ 7.00,≥ 7.00,CNC(=O)c1cc(-c2cccc(-c3cc(NC(=O)c4ccnc(C(C)(C)C#N)c4)ccc3C)n2)ccn1 [Example 234]
5.00 to 6.00,6.00 to 6.30,6.30 to 7.00,≥ 7.00,COC1(C(=O)Nc2cc(-c3cccc(-c4cc(NC(=O)c5ccnc(C(C)(C)C#N)c5)ccc4C)c3)ncn2)CC1 [Example 243]
6.30 to 7.00,≥ 7.00,≥ 7.00,≥ 7.00,Cc1cc(F)c(NC(=O)c2ccnc(C(C)(C)C#N)c2)cc1-c1nccc(-c2ccnc(NC(=O)C3CC3)c2)n1 [Example 244]
5.00 to 6.00,6.30 to 7.00,≥ 7.00,≥ 7.00,CCOc1ncc(-c2cc(NC(=O)c3ccnc(C(C)(C)C#N)c3)ccc2C)cc1-c1ccnc(C(=O)NC)c1 [Example 260]
5.00 to 6.00,6.30 to 7.00,6.30 to 7.00,≥ 7.00,Cc1cc(C(=O)Nc2cnc(C)c(-c3nccc(-c4ccnc(NC(=O)C5CC5)c4)n3)c2)ccn1 [Example 296]
5.00 to 6.00,5.00 to 6.00,5.00 to 6.00,5.00 to 6.00,Cc1ncc(NC(=O)C2CCN(C)C2)cc1-c1nccc(-c2ccnc(NC(=O)C3CC3)c2)n1 (centres unmarked) [Example 334]
